From US8057806B2 (priority 2000, dated 2011)

Experiments:
[1] = system: viral replication; conditions: cited from earlier work
[2] = system: wild-type WSN-UdM virus; type: cell-based, influenza A virus

## NC12CC3CC(CC(C3)C1)C2 [amantadine]
[1]
  concentrations at which the drug selectively inhibits viral replication: 0.1 to 5 µM
  concentrations of nonspecific action (increase in pH of endosomes): > 50 μM
[2]
  effect on virus yield and size of plaques: markedly reduced
